Drawing on BindingDB's records for doi:10.1016/j.bmcl.2006.10.091 (Bristol Myers Squibb, 2007), this text covers IC50 for one compound.

A word on the IC50: it is the concentration that gives 50% inhibition. Lower therefore signals inhibition by little substance.

A short description of this assay: Inhibition of MDC-induced chemotaxis in L1.2 cells expressing CCR4.

The compound `CCN(CC)C(C)CCCNc1nccc(NCc2ccc(Cl)cc2Cl)n1` (stereo unspecified) [N4-(2,4-dichlorobenzyl)-N2-(4-(diethylamino)pentyl)pyrimidine-2,4-diamine] displayed an IC50 of 5 µM.
